For test [1], the target named is mu opioid receptor (Homo sapiens, UniProt P35372). Nature of the test: Filtration binding assay: mu opioid receptor.
The target of test [2] is kappa opioid receptor (Homo sapiens, UniProt P41145). Nature of the test: Filtration binding assay: kappa opioid receptor.
Sequence of kappa opioid receptor (P41145 whole entry): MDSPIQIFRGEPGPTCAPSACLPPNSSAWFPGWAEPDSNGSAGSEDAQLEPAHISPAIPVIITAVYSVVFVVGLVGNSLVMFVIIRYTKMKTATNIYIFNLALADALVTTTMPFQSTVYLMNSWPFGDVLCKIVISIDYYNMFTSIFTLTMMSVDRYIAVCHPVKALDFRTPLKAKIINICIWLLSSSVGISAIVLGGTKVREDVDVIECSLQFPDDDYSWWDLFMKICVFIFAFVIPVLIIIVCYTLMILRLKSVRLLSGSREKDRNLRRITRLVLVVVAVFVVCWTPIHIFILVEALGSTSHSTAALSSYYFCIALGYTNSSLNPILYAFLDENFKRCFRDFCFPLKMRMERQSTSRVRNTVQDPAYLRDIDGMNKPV

Sequence of mu opioid receptor (P35372 whole entry): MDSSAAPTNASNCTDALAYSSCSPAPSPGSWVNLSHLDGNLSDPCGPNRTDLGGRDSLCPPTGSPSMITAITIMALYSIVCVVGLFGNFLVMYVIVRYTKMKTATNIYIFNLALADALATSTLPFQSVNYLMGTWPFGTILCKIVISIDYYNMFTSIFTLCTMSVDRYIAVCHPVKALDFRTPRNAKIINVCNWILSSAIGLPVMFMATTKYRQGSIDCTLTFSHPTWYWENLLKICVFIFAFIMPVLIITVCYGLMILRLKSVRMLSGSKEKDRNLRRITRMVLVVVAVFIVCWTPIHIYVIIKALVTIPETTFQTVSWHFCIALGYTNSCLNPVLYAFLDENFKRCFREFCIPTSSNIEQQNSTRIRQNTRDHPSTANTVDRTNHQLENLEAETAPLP

Regarding `COc1cc(CNC[C@H](O)CN2CN(c3ccc(F)cc3)C3(CCN(C4Cc5cccc6cccc4c56)CC3)C2=O)cc(OC)c1` (mixture of isomers) [compound 324], the IC50 in test [1] amounted to 110 nM; in test [2] it was 230 nM.
In the case of `O=C1N(C[C@@H](O)CN2CCN(c3cccc(C(F)(F)F)c3)CC2)CN(c2ccc(F)cc2)C12CCN(C1Cc3cccc4cccc1c34)CC2` (mixture of isomers) [compound 333], the concentration for half-maximal inhibition (IC50) in test [1] came to 240 nM; in test [2] it was 390 nM.
In the same order, the values of `O=C1N(C[C@@H](O)CN2CCN(C(c3ccccc3)c3ccc(Cl)cc3)CC2)CN(c2ccc(F)cc2)C12CCN(C1Cc3cccc4cccc1c34)CC2` (mixture of isomers) [compound 337] are 550 nM and 250 nM.
In the same order, the values of `CCCCN(CCCC)CCCNC[C@H](O)CN1CN(c2ccc(F)cc2)C2(CCN(C3Cc4cccc5cccc3c45)CC2)C1=O` (mixture of isomers) [compound 338] are 740 nM and 140 nM.
The corresponding values for `COc1cc(OC)c(CNC[C@H](O)CN2CN(c3ccc(F)cc3)C3(CCN(C4Cc5cccc6cccc4c56)CC3)C2=O)c(OC)c1` (mixture of isomers) [compound 367] are 1860 nM and 360 nM.
As for `O=C1N(C[C@@H](O)CNCCc2ccccc2)CN(c2ccc(F)cc2)C12CCN(CC1CCCCCCC1)CC2` [Compound #11], the half-inhibitory concentration (IC50) is 820 nM in test [1] and 290 nM in test [2].
The corresponding values for `O=C1N(C[C@@H](O)CNCc2ccc(C(F)(F)F)cc2)CN(c2ccc(F)cc2)C12CCN(CC1CCCCCCC1)CC2` [Compound #29] are 5410 nM and 410 nM.
In the same order, the values of `O=C1N(C[C@@H](O)CNCc2cccc(C(F)(F)F)c2)CN(c2ccc(F)cc2)C12CCN(CC1CCCCCCC1)CC2` [Compound #33] are over 10000 nM and 1160 nM.
For the compound `COc1cc(CNC[C@H](O)CN2CN(c3ccc(F)cc3)C3(CCN(CC4CCCCCCC4)CC3)C2=O)cc(OC)c1OC` [Compound #43], the half-maximal inhibitory concentration (IC50) in test [1] was determined as 540 nM; in test [2] it was 320 nM.
On to `O=C1N(C[C@@H](O)CNCc2ccccc2Br)CN(c2ccc(F)cc2)C12CCN(CC1CCCCCCC1)CC2` [Compound #44], for which the IC50 in test [1] was found to be 1130 nM; in test [2], 160 nM.
The corresponding values for `O=C1N(C[C@@H](O)CN2CCc3ccccc3C2)CN(c2ccc(F)cc2)C12CCN(CC1CCCCCCC1)CC2` [Compound #72] are 1840 nM and 790 nM.
Turning to `CCCCN(Cc1ccccc1)C[C@H](O)CN1CN(c2ccc(F)cc2)C2(CCN(Cc3c(C)c(C)c(C)c(C)c3C)CC2)C1=O` [Compound #280, 3-[3-(Benzyl-butyl-amino)-2-(S)-hydroxy-propyl]-1-(4-fluoro-phenyl)-8-pentamethylphenylmethyl-1,3,8-triaza-spiro[4.5]decan-4-one], the IC50 in test [1] was 2520 nM; in test [2], 1080 nM.
In the same order, the values of `Cc1cccc2cccc(CN3CCC4(CC3)C(=O)N(C[C@H](O)CN(C)C)CN4c3ccc(F)cc3)c12` [Compound #441, 3-(3-Dimethylamino-2-(R)-hydroxy-propyl)-1-(4-fluoro-phenyl)-8-(8-methyl-naphthalen-1-ylmethyl)-1,3,8-triaza-spiro[4.5]decan-4-one] are over 10000 nM and over 10000 nM.
The corresponding values for `CCCCN(Cc1ccccc1)C[C@H](O)CN1CN(c2ccc(F)cc2)C2(CCN(Cc3c(Cl)cccc3C(F)(F)F)CC2)C1=O` [Compound #456, 3-[3-(Benzyl-butyl-amino)-2-(S)-hydroxy-propyl]-8-(2-chloro-6-trifluoromethyl-benzyl)-1-(4-fluoro-phenyl)-1,3,8-triaza-spiro[4.5]decan-4-one] are over 10000 nM and over 10000 nM.
The corresponding values for `O=C1N(C[C@@H](O)CNc2ccc(-c3ccccc3)cc2)CN(c2ccc(F)cc2)C12CCN(CC1CCCCCCC1)CC2` [compound 9] are 940 nM and 1400 nM.
`O=C1N(C[C@@H](O)CNCc2cc(F)ccc2F)CN(c2ccc(F)cc2)C12CCN(CC1CCCCCCC1)CC2` [compound 12]: the IC50 in test [1] was found to be 520 nM; in test [2], 200 nM.
For the compound `O=C1N(C[C@@H](O)CNc2ccc(Br)cn2)CN(c2ccc(F)cc2)C12CCN(CC1CCCCCCC1)CC2` [compound 13], the values for the IC50 in test [1] and in test [2] were 620 nM and 120 nM, respectively.
In the same order, the values of `COc1ccccc1CNC[C@H](O)CN1CN(c2ccc(F)cc2)C2(CCN(CC3CCCCCCC3)CC2)C1=O` [compound 14] are 1200 nM and 400 nM.
Regarding `O=C1N(C[C@@H](O)CNCc2ccc(Br)cc2)CN(c2ccc(F)cc2)C12CCN(CC1CCCCCCC1)CC2` [compound 15], the 50% inhibitory concentration (IC50) in test [1] came out at 850 nM; in test [2], 330 nM.
In the same order, the values of `COc1ccc(CNC[C@H](O)CN2CN(c3ccc(F)cc3)C3(CCN(CC4CCCCCCC4)CC3)C2=O)cc1OC` [compound 22] are 600 nM and 300 nM.
As for `O=C1N(C[C@@H](O)CNCc2ccc([N+](=O)[O-])cc2)CN(c2ccc(F)cc2)C12CCN(CC1CCCCCCC1)CC2` [compound 23], the IC50 in test [1] turned out to be 9200 nM; in test [2] it was 490 nM.
As to `O=C1N(C[C@@H](O)CNCCc2cccs2)CN(c2ccc(F)cc2)C12CCN(CC1CCCCCCC1)CC2` [compound 26], the IC50 in test [1] is 790 nM; in test [2], 290 nM.
In the same order, the values of `O=C1N(C[C@@H](O)CNCc2ccc(Cl)cc2Cl)CN(c2ccc(F)cc2)C12CCN(CC1CCCCCCC1)CC2` [compound 31] are 2930 nM and 280 nM.
In the same order, the values of `O=C1N(C[C@@H](O)CN(CCc2ccccc2)Cc2ccccc2)CN(c2ccc(F)cc2)C12CCN(CC1CCCCCCC1)CC2` [compound 65] are 580 nM and 510 nM.
Consider `CCOc1ccccc1NC[C@H](O)CN1CN(c2ccc(F)cc2)C2(CCN(CC3CCCCCCC3)CC2)C1=O` [compound 281], for which the half-maximal inhibitory concentration (IC50) worked out at 580 nM in test [1] and 960 nM in test [2].
Take `O=C1N(C[C@@H](O)CNc2ccc(C3CCCCC3)cc2)CN(c2ccc(F)cc2)C12CCN(CC1CCCCCCC1)CC2` [compound 285]: the IC50 in test [1] is 4780 nM; in test [2] it was 2690 nM.
For the compound `O=C1N(C[C@@H](O)CN(Cc2ccccc2)C[C@@H]2CCC[C@@H]2O)CN(c2ccc(F)cc2)C12CCN(CC1CCCCCCC1)CC2` [compound 289], the IC50 in test [1] was 1390 nM; in test [2], 190 nM.
With `O=C1N(C[C@@H](O)CN(Cc2ccccc2)C[C@@H]2CCCCC[C@@H]2O)CN(c2ccc(F)cc2)C12CCN(CC1CCCCCCC1)CC2` [compound 291], the IC50 in test [1] was 4560 nM; in test [2], 570 nM.
In the same order, the values of `COc1ccc(CCNC[C@H](O)CN2CN(c3ccc(F)cc3)C3(CCN(Cc4cccc5cccc(C)c45)CC3)C2=O)cc1OC` [compound 386] are over 10000 nM and 3690 nM.
For the compound `Cc1cccc2cccc(CN3CCC4(CC3)C(=O)N(C[C@H](O)CN(Cc3ccccc3)C(C)(C)C)CN4c3ccc(F)cc3)c12` [compound 389], the IC50 is 7060 nM in test [1] and 9840 nM in test [2].
The corresponding values for `COc1ccc(CCN(C)C[C@@H](O)CN2CN(c3ccc(F)cc3)C3(CCN(Cc4cccc5cccc(C)c45)CC3)C2=O)cc1OC` [compound 391] are over 10000 nM and 2180 nM.
For the compound `COc1ccc(CNC[C@@H](O)CN2CN(c3ccc(F)cc3)C3(CCN(Cc4cccc5cccc(C)c45)CC3)C2=O)cc1` [compound 392], the concentration for half-maximal inhibition (IC50) in test [1] is over 10000 nM; in test [2], 1390 nM.
Turning to `Cc1cccc2cccc(CN3CCC4(CC3)C(=O)N(C[C@H](O)CNc3ccncc3)CN4c3ccc(F)cc3)c12` [compound 393], the IC50 in test [1] was over 10000 nM; in test [2], 1040 nM.
In the same order, the values of `Cc1cccc2cccc(CN3CCC4(CC3)C(=O)N(C[C@@H](O)CN(Cc3ccccc3)C(C)(C)C)CN4c3ccc(F)cc3)c12` [compound 395] are 1100 nM and over 10000 nM.
Regarding `Cc1cccc2cccc(CN3CCC4(CC3)C(=O)N(C[C@@H](O)CNCCN3CCOCC3)CN4c3ccc(F)cc3)c12` [compound 396], the IC50 in test [1] was over 10000 nM; in test [2], 810 nM.
In the same order, the values of `COc1ccc(CCN(C)C[C@H](O)CN2CN(c3ccc(F)cc3)C3(CCN(Cc4cccc5cccc(C)c45)CC3)C2=O)cc1OC` [compound 399] are over 10000 nM and 750 nM.
For the compound `O=C(O)c1ccc(CNC[C@H](O)CN2CN(c3ccc(F)cc3)C3(CCN(CC4CCCCCCC4)CC3)C2=O)cc1` [compound 452], the 50% inhibitory concentration (IC50) in test [1] is 570 nM; in test [2] it was 1520 nM.
In the same order, the values of `CCCCNC[C@H](O)CN1CN(c2ccc(F)cc2)C2(CCN(CC3CCCCCCC3)CC2)C1=O` [compound 454] are 510 nM and 120 nM.
As for `CSc1cccc(C(=O)N(Cc2ccc(C)cc2)C[C@H](O)CN2CN(c3ccc(F)cc3)C3(CCN(CC4CCCCCCC4)CC3)C2=O)n1` [compound 455], the concentration for half-maximal inhibition (IC50) in test [1] worked out at 5160 nM; in test [2], 380 nM.
As to `COc1ccc(CCN(C)C[C@H](O)CN2CN(c3ccc(F)cc3)C3(CCN(Cc4c(Cl)cccc4C(F)(F)F)CC3)C2=O)cc1OC` [compound 457], the concentration for half-maximal inhibition (IC50) was over 10000 nM in test [1] and 9430 nM in test [2].
The corresponding values for `O=C1N(C[C@@H](O)CNc2ccccc2)CN(c2ccc(F)cc2)C12CCN(Cc1c(Cl)cccc1C(F)(F)F)CC2` [compound 458] are over 10000 nM and 1450 nM.
Consider `CN(C)CCN(Cc1ccccc1)C[C@H](O)CN1CN(c2ccc(F)cc2)C2(CCN(Cc3c(Cl)cccc3C(F)(F)F)CC2)C1=O` [compound 459], for which the 50% inhibitory concentration (IC50) in test [1] is over 10000 nM; in test [2], 3210 nM.
`COC(=O)C(N)CSC[C@H](O)CN1CN(c2ccc(F)cc2)C2(CCN(CC3CCCCCCC3)CC2)C1=O` (stereo partly shown) [compound 460]: the figures for the concentration for half-maximal inhibition (IC50) in test [1] and in test [2] were 900 nM and 830 nM, respectively.
Take `Cc1cccc2cccc(CN3CCC4(CC3)C(=O)N(C[C@@H](O)CO)CN4c3ccc(F)cc3)c12` [compound 554]: the half-inhibitory concentration (IC50) in test [1] was over 10000 nM; in test [2], 9470 nM.

A word on the IC50: it is the concentration at which inhibition is half-maximal. A higher IC50 goes with weaker potency.

For the origin of these results see patent US7582649B2, “Hydroxy alkyl substituted 1,3,8-triazaspiro[4.5]decan-4-one derivatives useful for the treatment of ORL-1 receptor mediated disorders” (Janssen Pharmaceutica, NV, priority 2002, dated 2009).
